Reference: patent publication US11926645B2, “Compounds and methods for treatment of viral infections” (priority 2020, dated 2024)
Like-named read-outs stand apart in the source and are kept apart here.

How the values were obtained:
[1] = tested on: SARS-CoV-2-Nluc viruses; test: microbe, parasite or virus in culture; assay type: cell-based
[2] = tested on: SARS-CoV-2 WA1/2020 A; test: microbe, parasite or virus in culture; assay type: cell-based; settings: Severe acute respiratory syndrome coronavirus 2, Vero C1008
[3] = tested on: SARS-CoV-2 BZ/2021 P.1; test: microbe, parasite or virus in culture; assay type: cell-based; settings: Severe acute respiratory syndrome coronavirus 2, Vero C1008
[4] = tested on: SARS-CoV-2 2019-nCoV/USA-WA1/2020; assay type: in vivo
[5] = in vitro; assay type: in vitro ADME, Human; settings: human, s9, pH 7.4
Procedure, shortened: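 Compound at 2 μM final was incubated with S9 fraction at 1.0 mg/mL protein in 100 mM PBS pH 7.4, in duplicate, with GS-7340 as positive control. Samples were taken at 0, 10, 20, 30, 60 and 120 min and quenched with internal standard. Remaining compound was quantified by LC-MS as analyte/internal-standard peak-area ratio.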

[6] = biological target: T1, CES2 (Homo sapiens, UniProt O00748); test: CES1/2 stability, CES2; assay type: in vitro ADME; settings: CES2 Supersome preparation; Supersome preparations, CES 1.5 mg/ml, 2 μM substrate, pH 7.4, 37° C.; read-out: CES2 T1/2
T1 construct: purchased
T1 sequence (O00748 27-559): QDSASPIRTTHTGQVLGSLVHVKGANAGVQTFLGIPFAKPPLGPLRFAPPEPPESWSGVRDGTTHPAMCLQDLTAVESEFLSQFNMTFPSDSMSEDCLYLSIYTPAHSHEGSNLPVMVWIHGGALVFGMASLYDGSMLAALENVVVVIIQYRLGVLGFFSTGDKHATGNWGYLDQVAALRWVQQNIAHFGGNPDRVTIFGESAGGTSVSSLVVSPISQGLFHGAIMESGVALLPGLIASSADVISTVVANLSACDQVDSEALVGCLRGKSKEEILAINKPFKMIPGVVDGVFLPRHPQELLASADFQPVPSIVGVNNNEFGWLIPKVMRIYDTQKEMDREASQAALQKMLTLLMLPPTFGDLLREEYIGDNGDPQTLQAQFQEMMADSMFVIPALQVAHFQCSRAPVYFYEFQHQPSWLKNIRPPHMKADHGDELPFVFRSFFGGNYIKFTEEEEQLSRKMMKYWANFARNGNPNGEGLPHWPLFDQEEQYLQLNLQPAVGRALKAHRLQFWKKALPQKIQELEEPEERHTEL
Procedure: Test compounds or positive control substrates (oseltamivir for CES1 enzymes or procaine for CES2) were incubated with individual Supersome preparations (final CES concentration 1.5 mg/ml) in 0.1 M potassium phosphate buffer (pH 7.4) at 37° C. Substrates were added to a final concentration of 2 μM to initiate the reaction. The final incubation volume was 250 μL. Aliquots were removed after incubation for 0, 10, 30, 60 and 120 min. The reactions were stopped by the addition of IS/Q. Following protein precipitation and centrifugation, 150 μL of supernatant was diluted with an equal volume of water prior to LC-MS analysis. For procaine 150 μL of supernatant was dried down and reconstituted with 250 μL water. All samples were analyzed by LC-MS and the PAR values were used for quantification.

[7] = in vivo, po
[8] = in vivo, po; remark: listed apart in the source
[9] = in vitro; settings: African green monkey
[10] = in vitro; settings: human, PrestoBlue
[11] = […], Compound 1 10 mg/kg and 3 mg/kg, EIDD-2801/molnupiravir 5 mg/kg

SMILES: CC(C)C(=O)OC[C@H]1O[C@@](C#N)(c2ccc3c(N)ncnn23)[C@H](OC(=O)C(C)C)[C@@H]1OC(=O)C(C)C [Compound 1, (2R,3R,4R,5R)-2-(4-aminopyrrolo[2,1-f][1,2,4]triazin-7-yl)-2-cyano-5-((isobutyryloxy)methyl)tetrahydrofuran-3,4-diyl bis(2-methylpropanoate)]
- EC50 ([1]; Severe acute respiratory syndrome coronavirus 2, 48 h, read-out: SARS-CoV2 EC50): 2.7 µM
- EC50 ([1]; Severe acute respiratory syndrome coronavirus 2, host cells A549-ACE2, read-out: EC50, WA1/2020-nano luciferase): 0.98 µM
- EC50 [2]: 0.73 µM
- EC50 [3]: 0.22 µM
- Clinical signs versus vehicle animals [4, 11]: No significant differences in clinical signs
- Virus burden in the turbinates [4, 11]: reduced burden in the turbinates
- Shed virus load (nasal lavages) versus vehicle ([4]; […], Compound 1 10 mg/kg and 3 mg/kg, EIDD-2801/molnupiravir 5 mg/kg, within 12 hours of treatment onset): lower in all treated animals than in the vehicle group
- Viral RNA copies in nasal lavages and turbinates versus vehicle ([4]; […], Compound 1 10 mg/kg, EIDD-2801/molnupiravir 5 mg/kg): statistically significant mean reduction
- Clinical signs (body temperature, weight gain) ([4]; in vivo, po, 20 mg/kg): only animals of the vehicle group showed elevated body temperature
- Shed SARS-CoV-2 load in nasal lavages ([4]; in vivo, po, 20 mg/kg): transiently detectable in lavages of only one ferret
- Viral RNA copy numbers in turbinates, difference between vehicle and treatment groups ([4]; in vivo, po, 20 mg/kg): three
- Virus in nasal turbinates 4 days after infection ([4]; in vivo, po, 20 mg/kg): undetectable
- half-life at 2 μM [5]: 22.2 s
- half-life at 2 μM [6]: < 60 s
- Compound 1 concentration transiently observed ([7]; ferret, 30 mg/kg): ^aapproximately 10 nM Compound 1 transiently observed in first two hours.
- oral bioavailability (in words) [7]: excellent oral bioavailability
- Cmax ([7]; 30 mg/kg): 15.8 ± 4.7 µM
- anabolism to bioactive Reference Compound B (in words) [8]: efficient anabolism to bioactive Reference Compound B
- CC50 [9]: > 100 µM
- CC50 ([10]; CC50, DF2 HAE, primary diseased (asthma) HAE donor DF2, 72 hours): 86 µM
- CC50 ([10]; CC50, F2 HAE, primary HAE donor F2, 72 hours): 43.8 µM
- CC50 ([10]; CC50, F3 HAE, primary HAE donor F3, 72 hours): 43.8 µM
- CC50 ([10]; CC50, M2 HAE, primary HAE donor M2, 72 hours): 39.7 µM
- CC50 ([10]; CC50, M6 HAE, primary HAE donor M6, 72 hours): 92.3 µM
